The target in assay [1] is EED (Homo sapiens, UniProt O75530). The experiment in a line: EED TR-FRET Binding Assay (modified LanthaScreen competition assay). As for the experimental part: Compounds were tested in a modified LanthaScreen competition assay.
The following buffer was used to set up the binding reactions: 20 mM Tris-HCl pH 7.5, 200 mM NaCl, 0.01% Tween-20, 10 uM DTT (dithiothreitol), and 0.05% BSA (bovine serum albumin), with the DTT and BSA added fresh prior to initiating the binding assay. […] The reactions were then incubated for 1 hour at 25° C. in a humidified chamber prior to detection on the Perkin Elmer Envision plate reader using a Lanthascreen TR-FRET protocol.
For orientation: In TR-FRET formats the signal depends on donor and acceptor labels being close together.

Assay [2] has as its system Pfeiffer cells. As to the kind of experiment: CTG cell viability assay (CellTiter-Glo). The following applies: Homo sapiens, 240 h. It counts as cell-based. As for the experimental part: 1,000 cells were plated into each well of 96-well Corning CellBing cell culture plates and incubated overnight at 37° C. in a humidified CO2 incubator. […] The cell culture plates were then incubated for 10 more days. CTG cell viability assay was performed on the cell culture samples by using CellTiter-Glo® Luminescent Cell Viability Assay Kit (Promega).
In general terms: Cellular ATP, detected with luciferase, serves as a proxy for viable cell number.

Where [3] appears, read: Pfeiffer cells, 10 days with compound, CellTiter-Glo, read-out: Cell Proliferation IC50.

Like-named read-outs stand apart in the source and are kept apart here.

EED, sequence (O75530 whole entry): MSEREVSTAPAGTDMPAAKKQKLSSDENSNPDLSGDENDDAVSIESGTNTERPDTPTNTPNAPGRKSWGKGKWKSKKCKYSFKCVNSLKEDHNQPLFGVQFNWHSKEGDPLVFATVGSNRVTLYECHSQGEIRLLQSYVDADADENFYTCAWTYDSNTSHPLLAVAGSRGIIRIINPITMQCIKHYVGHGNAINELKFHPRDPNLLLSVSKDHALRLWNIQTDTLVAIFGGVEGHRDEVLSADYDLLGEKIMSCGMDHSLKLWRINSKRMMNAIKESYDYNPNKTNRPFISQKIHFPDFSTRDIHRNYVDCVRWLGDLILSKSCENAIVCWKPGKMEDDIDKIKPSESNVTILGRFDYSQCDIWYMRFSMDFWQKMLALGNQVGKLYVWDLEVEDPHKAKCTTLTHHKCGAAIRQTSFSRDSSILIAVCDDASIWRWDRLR

`Cc1nnc(-c2ccc([C@@H]3CN(C4CCc5cccc(F)c54)C[C@H]3N(C)C)cc2)o1` (mixture of isomers) [Example 68, rac-(3S,4R)-1-(7-fluoro-2,3-dihydro-1H-inden-1-yl)-N,N-dimethyl-4-[4-(5-methyl-1,3,4-oxadiazol-2-yl)phenyl]pyrrolidin-3-amine]: the IC50 in assay [1] was found to be 2.37 nM; in assay [2] (setting [3]) it was 0.491 µM.
The corresponding values for `CN(C)[C@H]1CN(C2CCc3cccc(F)c32)C[C@@H]1c1cn(C)c2c(C(=O)O)cccc12` (mixture of isomers) [Example 80, rac-3-[(3S,4R)-4-(dimethylamino)-1-(7-fluoro-2,3-dihydro-1H-inden-1-yl)pyrrolidin-3-yl]-1-methyl-1H-indole-7-carboxylic acid] are 9.44 nM and 1.52 µM.
For `CN(C)[C@H]1CN(C2CCc3cc(F)cc(F)c32)C[C@@H]1c1cn(C)c2ccccc12` (mixture of isomers) [Example 95, rac-(3R,4S)-1-(5,7-difluoro-2,3-dihydro-1H-inden-1-yl)-N,N-dimethyl-4-(1-methyl-1H-indol-3-yl)pyrrolidin-3-amine], in that order: 2.7 nM and 1.72 µM.
For `CN(CCO)C(=O)c1cccc2c([C@H]3CN(C4CCc5cccc(F)c54)C[C@@H]3N(C)C)cn(C)c12` (mixture of isomers) [Example 98, rac-3-[(3S,4R)-4-(dimethylamino)-1-(7-fluoro-2,3-dihydro-1H-inden-1-yl)pyrrolidin-3-yl]-N-(2-hydroxyethyl)-N,1-dimethyl-1H-indole-7-carboxamide], in that order: 1.37 nM and 0.126 µM.
As for `CNC(=O)c1cccc2c([C@H]3CN(C4CCc5cccc(F)c54)C[C@@H]3N(C)C)cn(C)c12` (mixture of isomers) [Example 99, rac-3-[(3S,4R)-4-(dimethylamino)-1-(7-fluoro-2,3-dihydro-1H-inden-1-yl)pyrrolidin-3-yl]-N,1-dimethyl-1H-indole-7-carboxamide], the IC50 in assay [1] was 1.91 nM; in assay [2] (setting [3]), 0.303 µM.
The corresponding values for `CN(C)[C@H]1CN(C2CCc3cccc(F)c32)C[C@@H]1c1cn(C)c2c(C(=O)NC3CC(O)C3)cccc12` (mixture of isomers) [Example 108, rac-3-[(3S,4R)-4-(dimethylamino)-1-(7-fluoro-2,3-dihydro-1H-inden-1-yl)pyrrolidin-3-yl]-N-(3-hydroxycyclobutyl)-1-methyl-1H-indole-7-carboxamide] are 1.5 nM and 0.152 µM.
The corresponding values for `CN(C(=O)c1cccc2c([C@H]3CN(C4CCc5cccc(F)c54)C[C@@H]3N(C)C)cn(C)c12)C1CC(O)C1` (mixture of isomers) [Example 109, rac-3-[(3S,4R)-4-(dimethylamino)-1-(7-fluoro-2,3-dihydro-1H-inden-1-yl)pyrrolidin-3-yl]-N-(3-hydroxycyclobutyl)-N,1-dimethyl-1H-indole-7-carboxamide] are 1.6 nM and 0.141 µM.
With `CN(C)C1CN(C2CCc3cccc(F)c32)CC1c1cn(C)c2cc(C(=O)N3CCC(O)C3)ccc12` (racemic) [Example 111, rac-{3-[(3S,4R)-4-(dimethylamino)-1-(7-fluoro-2,3-dihydro-1H-inden-1-yl)pyrrolidin-3-yl]-1-methyl-1H-indol-6-yl}[(35)-3-hydroxypyrrolidin-1-yl]methanone], the IC50 in assay [1] was 2.59 nM; in assay [2] (setting [3]) it was 0.171 µM.
The corresponding values for `CN(C)[C@H]1CN(C2CCc3cccc(F)c32)C[C@@H]1c1cn(C)c2c(C(=O)NC3CCS(=O)(=O)C3)cccc12` (mixture of isomers) [Example 115, rac-3-[(3S,4R)-4-(dimethylamino)-1-(7-fluoro-2,3-dihydro-1H-inden-1-yl)pyrrolidin-3-yl]-N-(1,1-dioxo-1lambda~6~-thiolan-3-yl)-1-methyl-1H-indole-7-carboxamide] are 1.73 nM and 0.224 µM.
For `CN(C)[C@H]1CN(C2CCc3cccc(F)c32)C[C@@H]1c1cn(C)c2c(C(=O)N3CCC[C@H]3C(N)=O)cccc12` (mixture of isomers) [Example 117, rac-1-{3-[(3S,4R)-4-(dimethylamino)-1-(7-fluoro-2,3-dihydro-1H-inden-1-yl)pyrrolidin-3-yl]-1-methyl-1H-indole-7-carbonyl}-L-prolinamide], in that order: 1.26 nM and 0.111 µM.
The corresponding values for `CN(C)[C@H]1CN(C2CCc3cccc(F)c32)C[C@@H]1c1cn(C)c2cc(C(=O)N3CCN(S(C)(=O)=O)CC3)ccc12` (mixture of isomers) [Example 122, rac-{3-[(3S,4R)-4-(dimethylamino)-1-(7-fluoro-2,3-dihydro-1H-inden-1-yl)pyrrolidin-3-yl]-1-methyl-1H-indol-6-yl}[4-(methanesulfonyl)piperazin-1-yl]methanone] are 2.88 nM and 0.556 µM.
`CC(=O)N1CCN(C(=O)c2ccc3c([C@H]4CN(C5CCc6cccc(F)c65)C[C@@H]4N(C)C)cn(C)c3c2)CC1` (mixture of isomers) [Example 123, rac-1-(4-{3-[(3S,4R)-4-(dimethylamino)-1-(7-fluoro-2,3-dihydro-1H-inden-1-yl)pyrrolidin-3-yl]-1-methyl-1H-indole-6-carbonyl}piperazin-1-yl)ethan-1-one]: the IC50 came out at 3.53 nM in assay [1] and 1.53 µM in assay [2] (setting [3]).
For `CN(C)C(=O)N1CCN(C(=O)c2cccc3c([C@H]4CN(C5CCc6cccc(F)c65)C[C@@H]4N(C)C)cn(C)c23)CC1` (mixture of isomers) [Example 127, rac-4-{3-[(3S,4R)-4-(dimethylamino)-1-(7-fluoro-2,3-dihydro-1H-inden-1-yl)pyrrolidin-3-yl]-1-methyl-1H-indole-7-carbonyl}-N,N-dimethylpiperazine-1-carboxamide], in that order: 1.75 nM and 0.335 µM.
The corresponding values for `CN(C)[C@H]1CN(C2CCc3cccc(F)c32)C[C@@H]1c1cn(C)c2c(C(=O)N3CCN4CCNC(=O)C4C3)cccc12` (mixture of isomers) [Example 134, rac-8-{3-[(3S,4R)-4-(dimethylamino)-1-(7-fluoro-2,3-dihydro-1H-inden-1-yl)pyrrolidin-3-yl]-1-methyl-1H-indole-7-carbonyl}hexahydro-2H-pyrazino[1,2-a]pyrazin-1(6H)-one] are 2.5 nM and 0.833 µM.
The corresponding values for `CN(C)[C@H]1CN(C2CCc3cccc(F)c32)C[C@@H]1c1cn(C)c2c(C(=O)N3CCN(c4cccnn4)CC3)cccc12` (mixture of isomers) [Example 137, rac-{3-[(3S,4R)-4-(dimethylamino)-1-(7-fluoro-2,3-dihydro-1H-inden-1-yl)pyrrolidin-3-yl]-1-methyl-1H-indol-7-yl}[4-(pyridazin-3-yl)piperazin-1-yl]methanone] are 1.91 nM and 0.299 µM.
Consider `CN(C)[C@H]1CN(C2CCc3cccc(F)c32)C[C@@H]1C1CCN(c2ccccc2)CC1` (mixture of isomers) [Example 146, rac-(3R,4S)-1-(7-fluoro-2,3-dihydro-1H-inden-1-yl)-N,N-dimethyl-4-(1-phenylpiperidin-4-yl)pyrrolidin-3-amine], for which the IC50 in assay [1] was 4.58 nM; in assay [2] (setting [3]), 2.9 µM.
The corresponding values for `CN(C)C(=O)CN1CCN(c2ccc([C@@H]3CN(C4CCc5cccc(F)c54)C[C@H]3N(C)C)cn2)CC1` (mixture of isomers) [Example 147, rac-2-(4-{5-[(3R,4S)-4-(dimethylamino)-1-(7-fluoro-2,3-dihydro-1H-inden-1-yl)pyrrolidin-3-yl]pyridin-2-yl}piperazin-1-yl)-N,N-dimethylacetamide] are 3.84 nM and 0.535 µM.
For `CN(C)[C@@H]1CN(C2CCc3cccc(F)c32)C[C@H]1c1ccc(-c2cnn(CC(=O)N3CC(O)C3)c2)nc1` (mixture of isomers) [Example 150, rac-2-(4-{5-[(3R,4S)-4-(dimethylamino)-1-(7-fluoro-2,3-dihydro-1H-inden-1-yl)pyrrolidin-3-yl]pyridin-2-yl}-1H-pyrazol-1-yl)-1-(3-hydroxyazetidin-1-yl)ethan-1-one], the IC50 in assay [1] was 2.4 nM; in assay [2] (setting [3]), 0.95 µM.
The corresponding values for `CN(C)[C@@H]1CN(C2CCc3cccc(F)c32)C[C@H]1c1ccc(N2CCN(C(=O)C3COC3)CC2)nc1` (mixture of isomers) [Example 151, rac-(4-{5-[(3R,4S)-4-(dimethylamino)-1-(7-fluoro-2,3-dihydro-1H-inden-1-yl)pyrrolidin-3-yl]pyridin-2-yl}piperazin-1-yl)(oxetan-3-yl)methanone] are 2.24 nM and 0.559 µM.
For `CN(C)[C@@H]1CN(C2CCc3cccc(F)c32)C[C@H]1c1ccc(-c2cnn(CC(=O)N3CC(F)C3)c2)nc1` (mixture of isomers) [Example 153, rac-2-(4-{5-[(3R,4S)-4-(dimethylamino)-1-(7-fluoro-2,3-dihydro-1H-inden-1-yl)pyrrolidin-3-yl]pyridin-2-yl}-1H-pyrazol-1-yl)-1-(3-fluoroazetidin-1-yl)ethan-1-one], in that order: 2.01 nM and 0.419 µM.
With `CC(=O)N1CCN(c2ccc([C@H]3CN([C@@H]4CCc5cccc(F)c54)C[C@@H]3N(C)C)cc2)CC1` [Example 46, 1-[4-(4-{(3S,4R)-4-(dimethylamino)-1-[(1R)-7-fluoro-2,3-dihydro-1H-inden-1-yl]pyrrolidin-3-yl}phenyl)piperazin-1-yl]ethan-1-one], the IC50 in assay [1] is 3.36 nM; in assay [2] (Pfeiffer, read-out: Cell Proliferation IC50 (uM)) it was 1.01 µM.
Turning to `CN(C)[C@H]1CN(C2CCc3cccc(F)c32)C[C@@H]1c1cn(C)c2c(C(=O)O)cccc12` (stereo partly drawn) [Example 79, 3-[(3S,4R)-4-(dimethylamino)-1-(7-fluoro-2,3-dihydro-1H-inden-1-yl)pyrrolidin-3-yl]-1-methyl-1H-indole-7-carboxylic acid], the values for the IC50 in assay [1] and in assay [2] (setting [3]) were 2.45 nM and 1.02 µM, respectively.

For the origin of these results see patent US9957274B2, “Indane inhibitors of EED and methods of their use” (AbbVie Inc., priority 2016, dated 2018).
